We go through twelve compounds from publication PMC6270234, “Chemical Composition of Aspidosperma ulei Markgr. and Antiplasmodial Activity of Selected Indole Alkaloids” (Molecules, 2013).

Series [1] concerns NIH3T3 murine fibroblasts. Kind of series: Cytotoxicity test using the Alamar Blue assay. Format: cell-based. Conditions: Mus musculus, 48 h, tested at 50 µg/mL, read-out: IC50 (toxicity to fibroblasts). The method, then:
The NHI-3T3 cell line of mouse fibroblasts was grown in DMEN medium supplemented with 10% fetal bovine serum, 2 mM glutamine, 100 µg/mL streptomycin and 100 U/mL penicillin, and incubated at 37 °C with a 5% atmosphere of CO2. For assays, the cells were plated in 96-well plates (10^4 cells per well) and the Alamar Blue^TM assay was performed using previously described procedures. Briefly, after 24 h, the compounds were dissolved in DMSO and added to each well to give final concentrations of 50 µg/mL. Plates were incubated for 48 h. Control groups had final well concentrations of 0.1% DMSO. Two hours before the end of the incubations, 10 µL of Alamar Blue^TM was added to each well. The fluorescent signal was monitored with a multiplate reader using 530–560 nm excitation and 590 nm emission wavelengths.

Series [2] concerns multi-drug resistant K1 strain of Plasmodium falciparum. Kind of series: In vitro antiplasmodial assay, inhibition of growth of parasites by optical microscopy. Format: cell-based. Particulars: for IC50: Plasmodium falciparum, K1, 48 h, read-out: IC50 ± SD; for Result: activity class from IC50 in µM, K1 strain. The method, then:
The in vitro antiplasmodial test was performed as previously described. […] Sample solutions were applied to the wells of 96-well test plates containing red blood cell suspension having initial parasitemia of 1.5%. […] After incubation, the contents of the wells were evaluated by optical microscopy. The inhibition of the growth of parasites (IGP%) was evaluated as a percentage by comparison with controls:
IGP% = 100 × [1 – (parasitemia with sample/parasitemia of untreated controls)]

The subject of series [3] is chloroquine-resistant Fc M29-Cameroon strain of Plasmodium falciparum. Also noted: method as in PMID 21612900. Particulars: cited from earlier work.
In a further series the test system is Plasmodium berghei. Also noted: method as in PMID 23092722. Conditions: Plasmodium berghei-infected mice, daily doses of 50-100 mg/kg/day, 4-day suppressive test; cited from earlier work.
Series [4] relates to K1 strain of P. falciparum. More on the design: method as in PMID 17568942, PMID 23092722. Particulars: cited from earlier work.
The conditions of series [5]: cited from earlier work.
Setting [6] is: P. falciparum K1 strain, 48 h incubation.

Values joined by “and” are separate entries in the source; they are usually repeats but may differ in a detail not shown here. Equal entries are not always repeated. “Also recorded” adds a separate entry of the source. Where two headings read alike, the source gives them in different places.

Compound `COC(=O)[C@@H]1[C@H]2Cc3c4[nH]c5ccccc5c4cc[n+]3C[C@@H]2CC[C@H]1O` [Compound 3, 3,4,5,6-tetradehydro-β-yohimbine] returned a melting point of 260 to 264 °C. Further, in series [1], the half-inhibitory concentration (IC50) was greater than 50 µg/mL. Besides, the IC50 in series [2] (setting [6]) worked out at 39.9 ± 7.7 µM. Also, the Result result in series [2] is “I (IC50 > 20.0 µM = inactive (I))”.
On to `CC=C1C[N+]23CCC1CC21Nc2ccccc2C1(O)CC3` (stereo not shown) [Compound 4, 19E-hunteracine], for which the melting point is 343 to 343.3 °C. The half-maximal inhibitory concentration (IC50) in series [1] is greater than 50 µg/mL. Also, the IC50 in series [2] (setting [6]) was greater than 176 µM. For the same compound, the Result result in series [2] is “I (IC50 > 20.0 µM = inactive (I))”.
Regarding `COC(=O)[C@@H]1[C@H]2CC3c4[nH]c5ccccc5c4CCN3C[C@@H]2CC[C@H]1O` (stereo partly drawn) [Compound 5, β-yohimbine], the 50% inhibitory concentration (IC50) in series [3] is greater than 1 µg/mL.
As for `COC(=O)[C@@H]1[C@H]2C[C@H]3c4[nH]c5ccccc5c4CCN3C[C@@H]2CC[C@@H]1O` [Compound 6, yohimbine], the IC50 in series [3] was greater than 1 µg/mL.
On to `Cc1nccc2c(C)c3[nH]c4ccccc4c3cc12` [Compound 8, olivacine], for which the “in vivo antimalarial activity (in words)” value in the series with Plasmodium berghei was “high in vivo antimalarial activity”. In series [4], the “in vitro antiplasmodial activity (in words)” value is “significant in vitro antiplasmodial activity”. Also, in series [5], the “cytotoxicity (in words)” value is “low cytotoxicity”.
With `CCC1C2CCN(C)C1c1c([nH]c3ccccc13)C2=O` (stereo not drawn) [Compound 11, 20-epi-dasycarpidone], the melting point fell in the range of 164.3 to 165.3 °C. In addition, in series [1], the half-maximal inhibitory concentration (IC50) is greater than 50 µg/mL. For the same compound, the “in vitro antiplasmodial activity (in words)” value in series [2] (P. falciparum K1 strain) is reported as “active; also recorded: moderate inhibitory activity”. Further, the IC50 in series [2] (setting [6]) was 4.5 µg/mL and 16.7 µM. In series [2], the Result result was “MA (IC50 5–20 µM = moderately active (MA))”.
Regarding `C/C=C1\CN2CCc3c([nH]c4ccccc34)CC1CC2` (stereo not shown) [Compound 12, 20(E)-nor-subincanadine E], the IC50 in series [1] was greater than 50 µg/mL; in series [2] (setting [6]) it was 54.3 ± 10.5 µM. Moreover, in series [2], the Result entry was “I (IC50 > 20.0 µM = inactive (I))”.
As for `CC(=O)N1c2c(O)cccc2C23CC[N+]4=C2C(CC(=O)O)(CCC4)CCC13` (stereo not shown) [Compound 13, 12-hydroxy-N-acetyl-21(N)-dehydroplumeran-18-oic acid], the IC50 in series [1] was greater than 50 µg/mL; in series [2] (setting [6]), greater than 135 µM. In series [2], the Result result was “I (IC50 > 20.0 µM = inactive (I))”.
Turning to `CC[C@@]12CCCN3CC[C@]4(c5ccc(OC)c(O)c5N(C(C)=O)[C@@H]4CC1)[C@H]32` [aspidocarpine], the “in vitro antiplasmodial activity (in words)” value in series [4] is given as “significant in vitro antiplasmodial activity”.
As to `CCN(CC)CCCC(C)Nc1ccnc2cc(Cl)ccc12` (stereo not shown) [chloroquine diphosphate, reference compound], in series [2], the half-maximal inhibitory concentration (IC50) is 0.17 µg/mL and 330 nM; the Result result is “A (0.1 < IC50 < 5 µM = active (A))”.
For the compound `Cc1c2ccncc2c(C)c2c1[nH]c1ccccc12` [ellipticine, reference compound], the “in vivo antimalarial activity (in words)” value with Plasmodium berghei is reported as “high in vivo antimalarial activity”. In addition, the “in vitro antiplasmodial activity (in words)” value in series [4] was “significant in vitro antiplasmodial activity”. In series [5], the “cytotoxicity (in words)” value is “low cytotoxicity”.
Turning to `C=C[C@H]1C[N@@]2CC[C@H]1C[C@H]2[C@H](O)c1ccnc2ccc(OC)cc12` [quinine sulphate, reference compound], the IC50 in series [2] (setting [6]) was 0.12 µg/mL and 300 nM.
